Test results as given in the supplement of paper PMC10307832.

Columns and labels:
Assay in all cases: relative viability (nuclei count vs DMSO), 5 days (fraction); higher = more cells survive
[1] = compound: Nc1ccccc1NC(=O)c1ccc(CNC(=O)OCc2cccnc2)cc1 [Entinostat] + CS(=O)(=O)N1CCN(Cc2cc3nc(-c4cccc5[nH]ncc45)nc(N4CCOCC4)c3s2)CC1 [Pictilisib] (partner 1 µM)
How it was run: (§1)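 For relative viability, nuclei counts in treated wells were divided by those in vehicle wells. Lung cancer cell lines had been pin-tool dosed in 1536-well plates the day after seeding and cultured for 5 days, then fixed and stained in one step (final 0.05% Triton X-100, 1% formaldehyde, 1 ug/ml Hoechst) and imaged at 4×. Doses were one drug alone or a fixed anchor-drug dose plus five library-drug doses (not always all listed) in √10 steps, and values are duplicate-plate medians.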

[2] = compound: C1COCCN1C2=NC(=NC3=C2OC4=C3C=CC=N4)C5=CC(=CC=C5)NC(=O)C6=CN=C(C=C6)N + CS(=O)(=O)CCNCc1ccc(-c2ccc3ncnc(Nc4ccc(OCc5cccc(F)c5)c(Cl)c4)c3c2)o1 [Lapatinib] (partner 2 µM)
How it was run: as §1

[3] = compound: C1COCCN1C2=NC(=NC3=C2OC4=C3C=CC=N4)C5=CC(=CC=C5)NC(=O)C6=CN=C(C=C6)N + CCNC(=O)c1noc(-c2cc(C(C)C)c(O)cc2O)c1-c1ccc(CN2CCOCC2)cc1 [Luminespib] (partner 0.01 µM)
How it was run: as §1

[4] = compound: C1COCCN1C2=NC(=NC3=C2OC4=C3C=CC=N4)C5=CC(=CC=C5)NC(=O)C6=CN=C(C=C6)N + NC(=O)Nc1cc(-c2cccc(F)c2)sc1C(=O)N[C@H]1CCCNC1 [AZD7762] (partner 0.2 µM)
How it was run: as §1

Cell Line	relative viability ([1]; first compound 0.02 µM)	relative viability ([1]; first compound 0.06325 µM)	relative viability ([1]; first compound 0.2 µM)	relative viability ([1]; first compound 0.6325 µM)	relative viability ([1]; first compound 2 µM)	relative viability ([2]; first compound 0.02 µM)	relative viability ([2]; first compound 0.06325 µM)	relative viability ([2]; first compound 0.2 µM)	relative viability ([2]; first compound 0.6325 µM)	relative viability ([2]; first compound 2 µM)	relative viability ([3]; first compound 0.02 µM)	relative viability ([3]; first compound 0.06325 µM)	relative viability ([3]; first compound 0.2 µM)	relative viability ([3]; first compound 0.6325 µM)	relative viability ([3]; first compound 2 µM)	relative viability ([4]; first compound 0.02 µM)	relative viability ([4]; first compound 0.06325 µM)	relative viability ([4]; first compound 0.2 µM)	relative viability ([4]; first compound 0.6325 µM)	relative viability ([4]; first compound 2 µM)
NCI-H1993	0.878	0.876	0.916	0.888	0.833	0.787	0.822	0.841	0.826	0.814	0.906	0.776	0.707	0.802	0.689	1.02	0.668	0.747	0.759	0.443
NCI-H322M	0.513	0.595	0.561	0.559	0.295	0.553	0.574	0.506	0.604	0.45	0.988	0.981	0.742	0.735	0.484	0.543	0.49	0.575	0.56	0.516
NCI-H2405	0.483	0.678	0.545	0.393	0.222	0.983	1.05	1.04	1.02	0.902	0.647	0.644	0.639	0.536	0.473	0.829	0.724	0.716	0.673	0.483
HCC-44	0.641	0.644	0.392	0.176	0.417	1.1	1.07	1.09	1.06	0.631	0.99	1.17	1.05	1.22	0.687	0.907	1.05	1.04	0.991	1.14
NCI-H3122	0.648	0.663	0.678	0.441	0.298	0.958	1.08	1.04	1.07	0.88	0.0667	0.0713	0.0835	0.0904	0.077	0.973	1.01	0.99	0.973	0.667
NCI-H1944	0.332	0.398	0.336	0.268	0.25	0.802	0.864	0.753	0.876	0.859	0.728	0.786	0.665	0.555	0.553	0.568	0.436	0.398	0.389	0.381
NCI-H358	0.332	0.327	0.369	0.278	0.187	0.438	0.45	0.34	0.387	0.355	0.287	0.254	0.353	0.426	0.193	0.442	0.475	0.443	0.465	0.409
NCI-H1755	0.383	0.408	0.367	0.204	0.205	1.09	1.12	1.05	1.02	0.653	0.447	0.666	0.436	0.235	0.239	0.45	0.4	0.397	0.414	0.348
